Measured values as given in PubChem BioAssay (NCI).
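How tested: cells in 96-well plates exposed to compound for 48 hours at five concentrations. TGI marks complete inhibition of growth.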

Legend:
Experiment in all cases: inhibition of tumour cell growth, NCI panel, 48 h
CAKI-1 renal = test system: CAKI-1 renal
HCC-2998 colon = test system: HCC-2998 colon
HCT-15 colon = test system: HCT-15 colon
HS 578T breast = test system: HS 578T breast
K-562 leukemia = test system: K-562 leukemia
LOX IMVI melanoma = test system: LOX IMVI melanoma
M14 melanoma = test system: M14 melanoma
MDA-MB-231 breast = test system: MDA-MB-231 breast
NCI/ADR-RES ovarian = test system: NCI/ADR-RES ovarian
SN12C renal = test system: SN12C renal
A498 renal = test system: A498 renal

| SMILES | TGI (CAKI-1 renal) | TGI (HCC-2998 colon) | TGI (HCT-15 colon) | TGI (HS 578T breast) | TGI (K-562 leukemia) | TGI (LOX IMVI melanoma) | TGI (M14 melanoma) | TGI (MDA-MB-231 breast) | TGI (NCI/ADR-RES ovarian) | TGI (SN12C renal) | TGI (A498 renal) |
| --- | --- | --- | --- | --- | --- | --- | --- | --- | --- | --- | --- |
| Cc1ccccc1Nc1nc2ccccc2nc1NS(=O)(=O)c1ccccc1 | > 100 µM | > 100 µM | > 100 µM | > 100 µM | > 100 µM | > 100 µM | > 100 µM | > 100 µM | > 100 µM | > 100 µM | – |
| Cc1nc(-n2nc(-c3ccccc3)cc2-c2ccccc2)sc1C(=O)/C=C/c1ccccc1 | > 100 µM | > 100 µM | > 100 µM | – | > 100 µM | > 100 µM | – | – | – | > 100 µM | > 100 µM |
| COc1ccc(/C=N/NC(=S)Nc2cc(C)ccc2OC)cc1 | > 100 µM | – | > 100 µM | > 100 µM | 13 µM | > 100 µM | 65.6 µM | – | > 100 µM | 68.6 µM | > 100 µM |
| c1cc2c(cc1[C@@H]1OC[C@@H]3[C@H]1CO[C@H]3c1ccc3c(c1)OCO3)OCO2 | > 100 µM | > 100 µM | > 100 µM | – | > 100 µM | > 100 µM | > 100 µM | > 100 µM | > 100 µM | > 100 µM | > 100 µM |
| CC(CC=O)Nc1nn2c(=O)c3ccccc3nc2s1 (centres undefined) | > 100 µM | > 100 µM | > 100 µM | > 100 µM | > 100 µM | > 100 µM | > 100 µM | – | > 100 µM | > 100 µM | > 100 µM |
| CN(C)C(=O)Oc1ccc(C(=S)Nc2ccccc2)cc1 | > 100 µM | > 100 µM | > 100 µM | > 100 µM | > 100 µM | > 100 µM | > 100 µM | – | 91.8 µM | – | > 100 µM |
| C[n+]1c2ccccc2c(C(=O)Nc2ccc(S(=O)(=O)Nc3ncccn3)cc2)c2ccccc21 | > 100 µM | > 100 µM | > 100 µM | > 100 µM | > 100 µM | > 100 µM | > 100 µM | > 100 µM | > 100 µM | > 100 µM | – |
| COc1cccc(N=NN2CCCC2)c1 | > 100 µM | – | > 100 µM | > 100 µM | > 100 µM | > 100 µM | > 100 µM | > 100 µM | > 100 µM | > 100 µM | > 100 µM |
| CCOC(=O)c1c(-c2ccccc2)c(C)cn1C | – | – | > 10 µM | > 10 µM | > 10 µM | – | > 10 µM | 0.772 µM | > 10 µM | > 10 µM | – |
| COC(=O)CC1CC2(C(=O)OC)c3[nH]c4ccccc4c3CCN2C1=O (centres undefined) | > 100 µM | > 100 µM | > 100 µM | – | > 100 µM | > 100 µM | > 100 µM | – | – | > 100 µM | > 100 µM |
| c1ccc(Nc2nnc(CCCCCCCCc3nnc(Nc4ccccc4)o3)o2)cc1 | > 100 µM | > 100 µM | > 100 µM | – | > 100 µM | > 100 µM | > 100 µM | > 100 µM | > 100 µM | > 100 µM | > 100 µM |
| CSc1nc[nH]c1C(N)=S | > 100 µM | – | – | > 100 µM | – | > 100 µM | > 100 µM | > 100 µM | > 100 µM | – | > 100 µM |
| Cc1nc(Cc2n[nH]c(C)n2)n[nH]1 | – | > 100 µM | > 100 µM | – | > 100 µM | > 100 µM | > 100 µM | > 100 µM | > 100 µM | > 100 µM | – |
| NC(N)=NCCCC(NC(=O)c1c2ccccc2nc2ccccc12)C(=O)O (centres undefined) | > 100 µM | > 100 µM | > 100 µM | – | > 100 µM | > 100 µM | > 100 µM | > 100 µM | > 100 µM | > 100 µM | > 100 µM |
| CC(C)(CN1CCCCC1)C(=O)CC(SCCS(=O)(=O)O)c1ccc(Cl)cc1 (centres undefined) | 18.3 µM | 26 µM | 6.66 µM | 7.5 µM | 9.91 µM | – | 9.19 µM | 6.61 µM | 34 µM | 15.8 µM | 13.5 µM |
| COc1cc2c(cc1OC)C(=O)/C(=C/c1ccc(N(C)C)cc1)CC2 | > 10 µM | > 10 µM | > 10 µM | > 10 µM | > 10 µM | > 10 µM | > 10 µM | > 10 µM | > 10 µM | > 10 µM | – |
| COc1ccc2c(c1)CC[C@@H]1C2CC[C@]2(C)C(=C=CP(=O)(O)O)CCC12 (some centres undefined) | > 100 µM | > 100 µM | > 100 µM | > 100 µM | > 100 µM | > 100 µM | > 100 µM | – | > 100 µM | > 100 µM | > 100 µM |
| O=C(O)Cn1ccc(=O)c2cc([N+](=O)[O-])ccc21 | > 100 µM | > 100 µM | > 100 µM | > 100 µM | > 100 µM | – | > 100 µM | 33.5 µM | > 100 µM | > 100 µM | > 100 µM |
| Clc1ccc(C2=NCON=C2c2ccc(Cl)cc2)cc1 | 97.8 µM | 32.7 µM | 50.6 µM | 36.2 µM | 55 µM | 28.3 µM | – | 43.7 µM | 71.2 µM | 35.2 µM | – |
| O=c1[nH]c2ccc([N+](=O)[O-])cc2nc1/C(=N/Nc1ccccc1)C(O)c1ccco1 (centres undefined) | – | > 100 µM | 63.5 µM | – | > 100 µM | > 100 µM | > 100 µM | – | – | > 100 µM | – |
| O=C(O)C1(C(O)c2ccccc2)SCCCS1 (centres undefined) | – | – | > 10 µM | > 10 µM | > 10 µM | > 10 µM | > 10 µM | > 10 µM | – | > 10 µM | > 10 µM |
| O=CC1=CCC2c3[nH]c4ccccc4c3CCN2C1 (centres undefined) | > 396 µM | 253 µM | 156 µM | – | > 396 µM | 111 µM | – | – | – | > 396 µM | – |
| CC[C@]1(Cc2ccc(OC)c(OC)c2)C=[N+]([O-])O[C@H](OC2CCCC2(c2ccccc2)c2ccccc2)[C@@H]1OC(=O)C(C)(C)C (some centres undefined) | > 100 µM | 3.71 µM | 8.97 µM | 28.7 µM | > 100 µM | 4.18 µM | > 40.8 µM | > 33 µM | 5.58 µM | > 22.1 µM | – |
